Measured values: ChEMBL document CHEMBL1201862, “PubChem BioAssay data set” (2004)
Calls of active or inactive are those of the source.

How the values were obtained:
[1] = test system: HeLa; assay: viability loss in HeLa cells – cell-based, 24 h, cherry-picked samples, cytotoxicity control, dose response (AID 504726); format: functional; settings: Homo sapiens;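 further: potency for cytotoxicity as loss of luminescence signal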
[2] = test system: Streptococcus sp. 'group A'; assay: Streptococcus pyogenes SK(-)GAS viability under kanamycin – luminescence, BacTiterGlo, confirmation, counter-screen for streptokinase expression inhibitor project, dose response (AID 1900); format: functional, organism-based
[3] = test system: Streptococcus; assay: GAS UMAA2166 growth inhibition – luminescence, BacTiterGlo, counter-screen for streptokinase expression inhibitor project, dose response (AID 1915); format: functional, organism-based;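 further: potency for reduction of bacterial viability or growth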
[4] = test system: Streptococcus; assay: Luminescence Microorganism-Based Dose Response Follow up to Identify Compounds Cytotoxic to Streptococcus. [Related pubchem assays: 1677 (Project Summary), 1915, 1914, 1902 (Retest at Dose), 1900 (Counter Screen), 1662 (Primary HTS)]; format: functional, organism-based
[5] = target: T1, Streptokinase A (Streptococcus pyogenes serotype M1, UniProt P10520); assay: viability-normalized secreted streptokinase activity reduction – plasminogen activation absorbance, OD405, dose response (AID 1914); format: functional, Streptococcus pyogenes M1 GAS;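 further: secreted streptokinase activity via plasminogen activation per viability signal from cell pellet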
T1 sequence (P10520 whole entry): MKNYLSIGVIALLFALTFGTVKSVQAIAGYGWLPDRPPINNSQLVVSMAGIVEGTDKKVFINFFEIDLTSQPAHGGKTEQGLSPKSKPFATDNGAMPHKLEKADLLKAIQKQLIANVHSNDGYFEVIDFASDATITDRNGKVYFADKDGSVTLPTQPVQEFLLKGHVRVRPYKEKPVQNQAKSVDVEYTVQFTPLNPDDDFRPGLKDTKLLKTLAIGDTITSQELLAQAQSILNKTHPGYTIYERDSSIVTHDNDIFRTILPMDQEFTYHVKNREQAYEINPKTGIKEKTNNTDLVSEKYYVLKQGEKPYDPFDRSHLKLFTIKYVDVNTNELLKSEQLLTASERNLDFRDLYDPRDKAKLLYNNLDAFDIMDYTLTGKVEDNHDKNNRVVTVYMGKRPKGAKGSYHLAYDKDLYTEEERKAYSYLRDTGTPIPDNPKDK

[6] = test system: Staphylococcus aureus; assay: Inhibitors of Bacterial Quorum Sensing Structure Activity Relationship (SAR) Analysis: Dose Response Assay. [Related pubchem assays: 700, 527 ]; format: functional, organism-based
[7] = target: Lysosomal acid glucosylceramidase (Homo sapiens, UniProt P04062); assay: Dose response cell-based high throughput screening assay to identify enhancers of beta-glucosidase activity. [Related pubchem assays: 784 ]; format: functional
Lysosomal acid glucosylceramidase, sequence (P04062 whole entry): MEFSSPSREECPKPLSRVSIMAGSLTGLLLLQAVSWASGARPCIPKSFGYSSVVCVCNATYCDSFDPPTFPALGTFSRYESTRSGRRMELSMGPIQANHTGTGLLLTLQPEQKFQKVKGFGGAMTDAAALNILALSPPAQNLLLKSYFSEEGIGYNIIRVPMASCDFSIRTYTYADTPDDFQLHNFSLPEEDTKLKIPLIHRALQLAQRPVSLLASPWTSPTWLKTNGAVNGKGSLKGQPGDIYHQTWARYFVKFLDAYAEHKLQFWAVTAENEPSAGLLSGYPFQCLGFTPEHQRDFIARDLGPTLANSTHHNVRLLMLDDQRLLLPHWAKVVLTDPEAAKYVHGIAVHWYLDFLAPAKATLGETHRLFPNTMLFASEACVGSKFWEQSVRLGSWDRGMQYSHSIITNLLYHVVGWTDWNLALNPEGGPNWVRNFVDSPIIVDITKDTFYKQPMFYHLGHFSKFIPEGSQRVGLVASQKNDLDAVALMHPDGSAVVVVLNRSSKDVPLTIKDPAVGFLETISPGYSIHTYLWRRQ

[8] = target: T2, Tyrosine-protein phosphatase non-receptor type 7 (Homo sapiens, UniProt P35236); assay: Dose Response confirmation of compounds that inhibit HePTP. [Related pubchem assays (depositor defined):AID1059, AID1661, AID2085]; format: functional
T2 sequence (P35236 whole entry): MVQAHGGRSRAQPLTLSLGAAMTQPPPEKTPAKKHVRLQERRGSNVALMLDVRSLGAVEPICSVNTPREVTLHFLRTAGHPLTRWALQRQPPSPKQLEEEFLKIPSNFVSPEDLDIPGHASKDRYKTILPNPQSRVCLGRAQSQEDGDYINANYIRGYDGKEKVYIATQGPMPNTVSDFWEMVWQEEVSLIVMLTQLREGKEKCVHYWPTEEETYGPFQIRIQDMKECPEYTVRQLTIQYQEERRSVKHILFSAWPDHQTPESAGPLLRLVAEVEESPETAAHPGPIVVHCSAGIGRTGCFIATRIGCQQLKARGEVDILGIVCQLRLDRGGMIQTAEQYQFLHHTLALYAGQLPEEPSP

[9] = target: Dual specificity protein phosphatase 3 (Homo sapiens, UniProt P51452); assay: Dose Response Confirmation of compounds that inhibit VHR1 in Fluorescent Assay. [Related pubchem assays (depositor defined):AID1661, AID1878]; format: functional
Dual specificity protein phosphatase 3, sequence (P51452 whole entry): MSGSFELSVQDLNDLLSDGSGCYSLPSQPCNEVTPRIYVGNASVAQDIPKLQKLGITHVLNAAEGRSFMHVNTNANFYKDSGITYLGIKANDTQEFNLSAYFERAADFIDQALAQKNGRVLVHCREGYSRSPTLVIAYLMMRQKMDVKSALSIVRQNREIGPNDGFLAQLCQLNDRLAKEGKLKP

[10] = target: Bcl-2-like protein 10 (Homo sapiens, UniProt Q9HD36); assay: Bcl-B/TR3 peptide binding disruption – biochemical, fluorescence polarization, FITC-TR3 peptide, selectivity assay for Bfl-1 inhibitor project, primary screen (AID 748);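 further: fluorescence polarization from a fluorescein-labelled TR3 peptide binding purified Bcl-B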
Bcl-2-like protein 10, sequence (Q9HD36 whole entry): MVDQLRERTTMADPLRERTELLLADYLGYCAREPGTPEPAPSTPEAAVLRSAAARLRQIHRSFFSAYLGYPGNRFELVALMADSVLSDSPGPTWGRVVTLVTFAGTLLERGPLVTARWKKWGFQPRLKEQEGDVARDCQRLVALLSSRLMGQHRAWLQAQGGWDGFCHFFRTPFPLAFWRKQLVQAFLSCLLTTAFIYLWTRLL

[11] = target: T3, Alkaline phosphatase, tissue-nonspecific isozyme (Homo sapiens, UniProt P05186)
T3 sequence (P05186 whole entry): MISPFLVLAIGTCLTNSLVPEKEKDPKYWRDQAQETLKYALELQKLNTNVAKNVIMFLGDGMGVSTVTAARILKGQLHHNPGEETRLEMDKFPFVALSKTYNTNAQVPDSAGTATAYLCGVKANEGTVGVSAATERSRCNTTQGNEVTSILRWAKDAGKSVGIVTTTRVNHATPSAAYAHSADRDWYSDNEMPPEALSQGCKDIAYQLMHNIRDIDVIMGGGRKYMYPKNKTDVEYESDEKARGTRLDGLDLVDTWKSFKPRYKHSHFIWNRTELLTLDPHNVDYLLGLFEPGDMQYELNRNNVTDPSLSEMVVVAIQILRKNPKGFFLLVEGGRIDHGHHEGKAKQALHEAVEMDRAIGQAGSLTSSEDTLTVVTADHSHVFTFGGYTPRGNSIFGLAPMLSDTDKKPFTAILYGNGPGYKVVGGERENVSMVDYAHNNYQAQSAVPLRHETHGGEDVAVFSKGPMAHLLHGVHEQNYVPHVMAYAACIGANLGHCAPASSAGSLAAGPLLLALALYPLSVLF

[12] = target: Cytochrome P450 2C9 (Homo sapiens, UniProt P11712); settings: Potency
Cytochrome P450 2C9, sequence (P11712 whole entry): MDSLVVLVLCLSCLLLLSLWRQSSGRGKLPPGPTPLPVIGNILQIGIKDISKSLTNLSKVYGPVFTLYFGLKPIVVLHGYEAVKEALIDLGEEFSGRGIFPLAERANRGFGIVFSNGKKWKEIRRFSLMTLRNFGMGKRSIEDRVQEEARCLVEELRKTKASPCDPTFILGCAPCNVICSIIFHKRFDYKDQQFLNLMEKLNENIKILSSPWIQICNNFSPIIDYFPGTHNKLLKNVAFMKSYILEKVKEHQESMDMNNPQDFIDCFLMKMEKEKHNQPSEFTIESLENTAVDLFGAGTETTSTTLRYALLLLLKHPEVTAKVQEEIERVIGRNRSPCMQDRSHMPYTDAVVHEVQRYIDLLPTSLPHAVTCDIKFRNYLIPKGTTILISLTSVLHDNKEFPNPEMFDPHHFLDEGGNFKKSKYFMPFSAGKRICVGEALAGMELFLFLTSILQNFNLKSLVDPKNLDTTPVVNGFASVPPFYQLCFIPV

SMILES: Cc1ccc(N(C)C(=O)C2CCCN2S(=O)(=O)c2ccc3c(c2)n(C)c(=O)c(=O)n3C)cc1 (configuration not stated)
- AC50 [1]: 267 µM (active)

SMILES: FC(F)(F)c1cccc(-c2cc3ccccc3nc2N2CCCC2)c1
- EC50 [2]: 6.96 µM (active)
- EC50 [3]: > 150 µM (not active)
- EC50 [4]: > 500 µM (not active)
- EC50 [5]: 9.12 µM (active)

SMILES: O=C(NCC(c1cccnc1)N1CCN(c2ccccc2)CC1)c1cccs1 (configuration not stated)
- IC50 [6]: 1.05 µM (active)

SMILES: COc1cccc(-c2cc(C(F)(F)F)nc(NCc3ccco3)n2)c1
- EC50 [7]: > 50 µM (not active)

SMILES: Cc1ccc2nc(-c3ccncc3)cc(C(=O)Nc3ccc(OC(F)F)cc3)c2c1
- IC50 [8]: 4.12 µM (active)
- IC50 [9]: 5.69 µM (active)

SMILES: c1cc2c3c(cccc3c1)NC1(CCCCC1)N2
- IC50 [10]: 60.5 µM (inactive)

SMILES: CCC(C)C(NC(=O)c1ccccc1NC(=O)c1ccco1)C(=O)NC1CCCCC1 (configuration not stated)
- EC50 [11]: > 100 µM (not active)

SMILES: CC(C)C[C@@H](CC(=O)N[C@@H](CCCN)CC(=O)N[C@@H]1CCCC[C@H]1C(=O)N[C@H](CC(=O)N[C@@H](CCC(=O)O)CC(=O)O)CC(C)C)NC(=O)[C@@H]1CNCC[C@H]1N
- AC50 [12]: 39.8 µM (inconclusive)
